# Molecular target: T1, α-7 nicotinic ACh receptor ion channel expressed in HEK 293 cells (Rattus norvegicus, UniProt Q05941)
# T1 construct: expressed in transfected cells
# Assay: Ca2+-sensitive, fluorescence-based assay for α-7 nicotinic acetylcholine receptor channel function in mammalian cells (FLIPR)
# Format: cell-based
# Conditions: Table 1, agonist Ca2+ flux, read-out: FLIPR α7 (EC50)
# Procedure: II) A Ca^2+-Sensitive, Fluorescence-Based Assay α-7 for Nicotinic Acetylcholine Receptor Channel Function in Mammalian Cells (“FLIPR”). Summary:
# Lead compounds are evaluated for agonist activity at α-7, α3β4, α4αβ2, and α1β1δ1ε sub-types of nicotinic ACh receptor ion channels expressed in mammalian HEK 293 cells. Agonist potency and efficacy values are determined from kinetic fluorescence Ca^2+ influx measurements made using a 384 well FLIPR (Fluorescence Image Plate Reader). The utility of fluorescent indicators for measuring changes in intracellular divalent cation concentrations, particularly Ca^2+, for drug discovery endeavors is well documented (Rudiger, R., et al., Nature Reviews, 2003, 4:579-586; Gonzalez J. E., et al., Receptors and Channels, 2002, 8:283-295). In this assay, channel expressing HEK cell lines seeded in 384 well assay plates are loaded with a membrane permeant fluorescent Ca^2+ indicator dye, whose 510 nm green emission signal increases in response to elevation of intracellular Ca^2+ concentration. The basal fluorescence from the cells is monitored in real time, followed by the acute addition of test compounds. If the compound is an agonist at any of the non-selective cation channels, the latter open and allow the movement of extracellular Ca^2+ ions into the cell cytoplasm, where they bind to the Ca^2+ indicator dye, and produce an increase in fluorescence output signal, which is detected by a cooled CCD imaging camera.
# Reagents: The acetomethoxy (AM) ester of the Ca^2+ indicator dye Fluo-4 was obtained from InVitrogen, (Carlsbad, Calif.). Acetylcholine and all buffer constituents were purchased from Sigma Chemical Company, St. Louis, Mo. G418 and Minimal Essential Medium were purchased from InVitrogen Life Technologies, Carlsbad, Calif. Fetal bovine serum was purchased from (InVitrogen, Carlsbad, Calif.).
# HEK-293 cells were grown in Minimal Essential Medium containing 10% (v/v) fetal bovine serum at 37° C. in a 5% CO2 incubator. HEK-293 cells stably expressing the ion channels were grown in the same medium with the addition of 500 μg/ml G418.
# HEK-293 cells expressing the ion channels of interest were plated in 384 well, black-walled, clear-bottomed, poly-D-lysine coated plates at a density of ˜20,000 cells/well in 20 μl of Minimal Essential Medium containing 10% (v/v) fetal bovine serum and incubated for 2 days at 29° C. in a 5% CO2 incubator. Prior to assay, cells were loaded with the Fluo-4 AM ester. Cell loading was accomplished by removing the culture medium and replacing it with 30 μl/well of the AM ester of the dye (5 μM) mixed with Hanks Balanced Salt Solution (#14175-095) containing 20 mM HEPES, 2.5 mM probenecid, 0.5 mM CaCl2, 1 mM MgCl2 and 10 μM atropine. Dye loading was allowed to proceed for 90 minutes at room temperature at which time the dye loading solution was removed and replaced with 40 μl/well of Hanks buffer. Cells loaded with dye were loaded onto a FLIPR384 (Molecular Devices, Sunnyvale, Calif.). Fluo-4 dye was excited using the 488 nm line of an argon laser. Emission was filtered using a 540+/−30 nm bandpass filter. For evaluation of the effects of test compounds using the Ca^2+ flux assay, compounds to be tested were provided in assay ready plates. For nicotinic receptor ion channel expressing cells, the assay was initiated by the addition of 20 μl/well of Hanks buffer containing test compounds. For all assays, data were collected at 1 Hz for 10 seconds (baseline), at which time the compound containing stimulus buffers are added, and further measurements collected at 0.33 Hz for 3 min.
# The statistical robustness of the nicotinic receptor Ca^2+ flux assays is determined from blanks and totals wells. The totals wells define maximal channel activation for each compound test plate (Maximum efficacious dose of acetylcholine), and the blanks wells which contain matched DMSO only, define zero channel activation. […]
# T1 sequence (Q05941 23-502): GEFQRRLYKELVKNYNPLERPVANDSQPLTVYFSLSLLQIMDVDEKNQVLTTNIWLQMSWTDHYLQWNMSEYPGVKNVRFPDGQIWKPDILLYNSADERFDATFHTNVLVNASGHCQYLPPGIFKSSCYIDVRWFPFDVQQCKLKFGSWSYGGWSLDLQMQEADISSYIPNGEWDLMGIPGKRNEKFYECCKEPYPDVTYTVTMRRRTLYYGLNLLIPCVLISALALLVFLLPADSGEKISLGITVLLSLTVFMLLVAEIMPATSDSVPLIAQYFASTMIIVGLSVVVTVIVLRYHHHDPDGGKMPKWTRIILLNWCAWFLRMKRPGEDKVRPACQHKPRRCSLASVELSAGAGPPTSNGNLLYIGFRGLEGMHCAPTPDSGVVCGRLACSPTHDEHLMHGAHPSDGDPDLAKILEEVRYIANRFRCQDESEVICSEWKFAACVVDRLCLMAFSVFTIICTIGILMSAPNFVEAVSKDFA
row,SMILES,EC50 [µM]
1,Cc1cc(C(=O)N2CC3CN4CCC3C2C4)oc1C (stereo not drawn) [Example 70],> 100
2,O=C(c1cc2nccnc2s1)N1CC2CN3CCC2C1C3 (stereo not drawn) [Example 75],> 100
3,Cc1c(Br)csc1C(=O)N1CC2CN3CCC2C1C3 (stereo not drawn) [Example 65],> 100
4,Cn1nc2ccccc2c1C(=O)N1CC2CN3CCC2C1C3 (stereo not drawn) [Example 54],> 100
5,O=C(c1ccc(Br)o1)N1CC2CN3CCC2C1C3 (stereo not drawn) [Example 7],> 100
6,CSc1sc(C(=O)N2CC3CN4CCC3C2C4)c2c1C=CCC2 (stereo not drawn) [Example 83],> 100
7,COc1cc(Br)cc2cc(C(=O)N3CC4CN5CCC4C3C5)oc12 (stereo not drawn) [Example 60],> 100
8,O=C(c1cc(Br)c(Br)s1)N1CC2CN3CCC2C1C3 (stereo not drawn) [Example 51],> 100
9,O=C(c1snc(Cl)c1Cl)N1CC2CN3CCC2C1C3 (stereo not drawn) [Example 76],> 100
10,O=C(c1sc2cccc(Cl)c2c1Cl)N1CC2CN3CCC2C1C3 (stereo not drawn) [Example 79],> 100

# Same assay, conditions: Table 2, agonist Ca2+ flux, read-out: FLIPR α7 (EC50)
row,SMILES,EC50 [µM]
1,"O=C(c1cc2c(Cl)cccc2s1)N1C[C@H]2C[N@]3CC[C@H]2[C@H]1C3 [Example 94, 4-chlorobenzo[b]thiophen-2-yl((3R,3aR,6S,7aS)-hexahydro-3,6-methanopyrrolo[2,3-c]pyridin-1(2H)-yl)methanone]",> 100
2,"O=C(c1ccc(Cl)cc1)N1C[C@H]2C[N@]3CC[C@H]2[C@H]1C3 [Example 98, (4-chlorophenyl) ((3R,3aR,6S,7aS)-hexahydro-3,6-methanopyrrolo[2,3-c]pyridin-1(2H)-yl)methanone]",> 100
3,"COc1cccc2[nH]nc(C(=O)N3C[C@H]4C[N@]5CC[C@H]4[C@H]3C5)c12 [Example 95, ((3R,3aR,6S,7aS)-hexahydro-3,6-methanopyrrolo[2,3-c]pyridin-1(2H)-yl)(4-methoxy-1H-indazol-3-yl)methanone]",> 100
4,"COc1ccc2c(C(=O)N3C[C@H]4C[N@]5CC[C@H]4[C@H]3C5)n[nH]c2c1 [Example 93, ((3R,3aR,6S,7aS)-hexahydro-3,6-methanopyrrolo[2,3-c]pyridin-1(2H)-yl)(6-methoxy-1H-indazol-3-yl)methanone]",2.2
5,"O=C(c1cc2ccccc2o1)N1C[C@H]2C[N@]3CC[C@H]2[C@H]1C3 [Example 99, benzofuran-2-yl((3R,3aR,6S,7aS)-hexahydro-3,6-methanopyrrolo[2,3-c]pyridin-1(2H)-yl)methanone]",35

# Same assay, conditions: Table 3, agonist Ca2+ flux, read-out: FLIPR α7 (EC50)
row,SMILES,EC50 [µM]
1,"O=C(c1ccc(Cl)cc1)N1C[C@@H]2C[N@@]3CC[C@@H]2[C@@H]1C3 [Example 112, (4-chlorophenyl)((3S,3aS,6R,7aR)-hexahydro-3,6-methanopyrrolo[2,3-c]pyridin-1(2H)-yl)methanone]",> 100
2,"O=C(c1n[nH]c2ccccc12)N1C[C@@H]2C[N@@]3CC[C@@H]2[C@@H]1C3 [Example 87, ((3S,3aS,6R,7aR)-hexahydro-3,6-methanopyrrolo[2,3-c]pyridin-1(2H)-yl)(1H-indazol-3-yl)methanone]",0.37
3,"Cn1nc(C(=O)N2C[C@@H]3C[N@@]4CC[C@@H]3[C@@H]2C4)c2ccccc21 [Example 101, ((3S,3aS,6R,7aR)-hexahydro-3,6-methanopyrrolo[2,3-c]pyridin-1(2H)-yl)(1-methyl-1H-indazol-3-yl)methanone]",> 100
4,"O=C(c1nsc2ccccc12)N1C[C@@H]2C[N@@]3CC[C@@H]2[C@@H]1C3 [Example 111, benzo[d]isothiazol-3-yl((3S,3aS,6R,7aR)-hexahydro-3,6-methanopyrrolo[2,3-c]pyridin-1(2H)-yl)methanone]",36
5,"O=C(c1cc2ccccc2o1)N1C[C@@H]2C[N@@]3CC[C@@H]2[C@@H]1C3 [Example 113, benzofuran-2-yl((3S,3aS,6R,7aR)-hexahydro-3,6-methanopyrrolo[2,3-c]pyridin-1(2H)-yl)methanone]",> 100

# Same assay, conditions: Table 5, agonist Ca2+ flux, read-out: FLIPR α7 (EC50)
row,EC50 [µM],SMILES
1,0.073,"O=C(c1n[nH]c2ccccc12)N1C2CC3CC1CN(C3)C2 [Example 115, 1,4-diazaadamantan-4-yl(1H-indazol-3-yl)methanone]"
